Assay results published in patent publication US20250388571A1, “AMP-ACTIVATED PROTEIN KINASE MODULATOR COMPOUNDS AND USES THEREOF” (Biolexis Therapeutics, Inc., priority 2024, published 2025).
Where two headings read alike, the source gives them in different places.

Legend:
[1] = system: AMPK signal pathway in HSKM cells; test: Western blot assay, HSKM cells; type: cell-based, human
HSKM cells = test: CyQUANT Cytotoxicity Assay (G6PD assay), HSKM; conditions: treated 2 hours
Protocol: The CyQUANT Cytotoxicity Assay (Thermofisher, cat no: V23111) was used to detect damaged and dying cells by means of their release of glucose 6-phosphate dehydrogenase into the surrounding medium. Cells were plated in a 96-well microplate (500-25,000 cells/well in a 50-μL volume). Three sets of triplicate wells were reserved for the following controls: a no-cell control (medium alone), untreated cells, and completely lysed cells. Cells were starved for 2 h and then add the indicated AMPK activators (50 μL) to the experimental wells and incubate for 2 hours, 50 μL of 2× reaction mixture was added to each well. 1 μL of 100× Cell-Lysis buffer was added to the completely lysed control wells only. Cells were incubated at 37° C. for 10-30 minutes. Fluorescence was measured (excitation 530-560 nm, emission 580-600 nm) at 5-minute intervals to determine the optimal time point for the experiment.
To text toxicity, after differentiation of human skeletal muscle cells, HSKM were starved with DMEM medium without FBS/glucose for 2 hours. […] The resultant reaction mixture was then assayed for glucose 6-phosphate dehydrogenase release. An untreated control sample and completely lysed cells were detected for comparison. The fluorescence was measured in a microplate reader (excitation/emission ˜530/590 nm).

[2] = system: AMPK signal pathway in C2C12 cells; test: Western blot assay, C2C12 cells
Protocol: Samples for immunoblotting studies were prepared for electrophoresis by adding in a final concentration of 1× Laemmli loading buffer (supplemented with 5% 2-mercaptoethanol). Samples were then electrophorized by SDS-PAGE (4-15% or 4-20% Criterion TGX Precast gel, Bio-Rad) at a constant voltage within the range of 140V. Proteins were transferred to a nitrocellulose membrane (Bio-Rad) using the Trans-Blot Turbo transfer system (Bio-Rad). Membranes were blocked with 5% BSA in TBST for a minimum of 1 hour at room temperature before incubating with the following primary antibodies: • Phospho-AMPKα (Thr172) (40H9) Rabbit mAb (CST, cat no: 2535S), • AMPKα Antibody (CST, cat no: 2532S) • Phospho-Raptor (Ser792) Antibody (CST, cat no: 2083S) • Raptor (24C12) Rabbit mAb (CST, cat no: 2280S) • Phospho-Acetyl-CoA Carboxylase (Ser79) Antibody (CST, cat no: 3661S) • Acetyl-CoA Carboxylase Antibody (CST, cat no: 3662S) • AMPKα2 Antibody (CST, cat no: 2757S) • AMPKβ1 antibody (CST, cat no: 12063) • AMPKβ2 Antibody (CST, CST, cat no: 4148S) • AMPKγ3 Antibody (CST, cat no: 2550S). […]
After differentiation of cells (e.g., HSKM, C2C12, L6) for 5 days, medium was changed to DHEM without FBS and glucose for starving cells for 2 hours. […] The resultant reaction mixture was then assayed and semi-quantitative histogram analysis of Western Blotting (signal value) was used to determine results.

in vivo = type: in vivo; conditions: dog
Protocol: A total of 3 animals were segregated in to one group and each animal received oral dose followed by intravenous infusion (15 minutes) as a cross over design with 7 days of no dose interval between periods. […] Similarly, in period 2 after 7 days of no dose interval, animals were received intravenous infusion for 15 min at a dose of 1 mg/kg via saphenous vein at a dose volume of 1 mL/kg, each dog was observed after administration of the test item for presence or absence of clinical signs.
A total of 11 time points for oral and 12 blood samples for IV per each animal were collected, approximately 1 mL were collected from each dog in pre-labeled Eppendorf tubes containing 20 μL/mL of 200 mM K2 EDTA. Blood was withdrawn at scheduled time points via cephalic vein in pre-labelled Eppendorf tubes. The pre-dose blood sample was collected before to drug administration. Post dose samples were collected within stipulated time. The blood samples were kept on crushed ice to maintain the temperature until centrifugation. Plasma was separated and stored under −70° C. […] The PK parameters were evaluated using Phoenix WinNonlin® Ent-Version 8.3 by non-compartmental analysis.

[3] = Plasma and tissue concentration in high fat diet mice, day 36; type: in vivo, mice (Mus musculus—C57BL-6); conditions: for concentration at 1 h / concentration at 3 h / concentration at 4 h: male, C57BL-6, mouse, oral
Protocol: Doses were 30 and 50 mg/kg and administered orally (p.o.) once a day (QD) for 36 days. Dose volume was 10 mL/kg, which was administered to male, 18-22-week-old mice (Mus musculus—C57BL-6) with body weight between 18-19.4 g each. Mice were grouped into 3 groups of 10. The diet for induced obesity mice were selected as a test system
Plasma lipid profile: On day 34 total cholesterol levels, triglyceride, HDL, and LDL levels were detected. Plasma insulin (fasting) and plasma NEFA (fasting) was tested on day 36. Cumulative food consumption was measured daily starting from day 1 onwards up to end of the study period. Liver, heart, jejunum, and brain tissue were collected for additional testing.

HepG2 cells = test: CyQUANT Cytotoxicity Assay (G6PD assay), HepG2; conditions: treated 2 hours
[4] = system: AMPK signaling in human liver cells; test: Western blot assay, human liver cells (Biological Example 1); type: cell-based
Protocol: After treatment, cells were analyzed using a glucose uptake assay and a western blot assay for human skeletal myoblasts, human cardiomyocytes cells, human hepatocytes-THLE-2 cells, preadipocyte HWP-c cells.
Samples for immunoblotting studies were prepared for electrophoresis by adding in a final concentration of 1× Laemmli loading buffer (supplemented with 5% 2-mercaptoethanol). Samples were then electrophorized by SDS-PAGE (4-15% or 4-20% Criterion TGX Precast gel, Bio-Rad) at a constant voltage within the range of 140V. Proteins were transferred to a nitrocellulose membrane (Bio-Rad) using the Trans-Blot Turbo transfer system (Bio-Rad). Membranes were blocked with 5% BSA in TBST for a minimum of 1 hour at room temperature before incubating with the following primary antibodies: • Phospho-AMPKα (Thr172) (40H9) Rabbit mAb (CST, cat no: 2535S), • AMPKα Antibody (CST, cat no: 2532S) • Phospho-Raptor (Ser792) Antibody (CST, cat no: 2083S) • Raptor (24C12) Rabbit mAb (CST, cat no: 2280S) • Phospho-Acetyl-CoA Carboxylase (Ser79) Antibody (CST, cat no: 3661S) • Acetyl-CoA Carboxylase Antibody (CST, cat no: 3662S) • AMPKα2 Antibody (CST, cat no: 2757S) • AMPKβ1 antibody (CST, cat no: 12063) • AMPKβ2 Antibody (CST, CST, cat no: 4148S) • AMPKγ3 Antibody (CST, cat no: 2550S).

Q: With `O=c1[nH]c(-c2c[nH]c3cc(F)c(-c4ccc(C5(O)CCC5)cc4)c(F)c23)no1` [Compound I-11, 3-(4,6-difluoro-5-(4-(1-hydroxycyclobutyl)phenyl)-1H-indol-3-yl)-1,2,4-oxadiazol-5(4H)-one] as the compound, how does the AMPK isoform expression ([1]; HSKM cells) read?
A: increased AMPKα2β1γ3 expression

Q: And the “potency compared with reference compound MK-8722 (p-ACC, p-AMPK)” value ([1]; HSKM cells)?
A: more potency activity

Q: What about the “p-ACC and p-AMPK induction” value ([1]; HSKM cells, 1 hour) of the same compound?
A: dosage-dependent manner

Q: And the “p-AMPK, p-ACC, and p-Raptor expression” value ([1]; some high dosage groups, cell type not given)?
A: could induce

Q: And the “toxicity compared to reference compounds MK-8722 and PF-06409577 (G6PD release)” value (HSKM cells)?
A: less toxicity

Q: And the pAMPK/pACC/AMPKα2β1β2γ3 expression [2]?
A: also induce

Q: What about the “systemic exposure, oral administration” value (in vivo; 5 mg/kg oral) of the same compound?
A: low systemic exposure

Q: What about the bioavailability (in vivo; male, Beagle, plasma, 5 mg/kg oral compared with intravenous infusion (1 mg/kg)) of the same compound?
A: 5.27 ± 2.94%

Q: What about the “Brain (ng/mL)” value ([3]; 30 mg/kg, 1 hr) of the same compound?
A: BLQ

Q: And the “Brain (ng/mL)” value ([3]; 30 mg/kg, 3 hr)?
A: BLQ

Q: And the “Skeletal muscle (ng/mL)” value ([3]; 30 mg/kg, 3 hr)?
A: BLQ

Q: And the “Brain (ng/mL)” value ([3]; 50 mg/kg, 1 hr)?
A: BLQ

Q: What about the “Skeletal muscle (ng/mL)” value ([3]; 50 mg/kg, 1 hr) of the same compound?
A: BLQ

Q: And the “Brain (ng/mL)” value ([3]; 50 mg/kg, 3 hr)?
A: BLQ

Q: And the “Skeletal muscle (ng/mL)” value ([3]; 50 mg/kg, 3 hr)?
A: BLQ

Q: And the “Brain (ng/mL)” value ([3]; 50 mg/kg, 4 hr)?
A: BLQ

Q: What about the “Skeletal muscle (ng/mL)” value ([3]; 50 mg/kg, 4 hr) of the same compound?
A: BLQ

Q: And the concentration at 1 h ([3]; adipose tissue (abdominal fat), 30 mg/kg, 1 hr, read-out: Adipose tissue (abdominal fat))?
A: 57 ng/mL

Q: What about the concentration at 3 h ([3]; adipose tissue (abdominal fat), 30 mg/kg, 3 hr, read-out: Adipose tissue (abdominal fat)) of the same compound?
A: 23 ng/mL

Q: And the concentration at 4 h ([3]; adipose tissue (abdominal fat), 30 mg/kg, 4 hr, read-out: Adipose tissue (abdominal fat))?
A: 38 ng/mL

Q: And the concentration at 1 h ([3]; adipose tissue (abdominal fat), 50 mg/kg, 1 hr, read-out: Adipose tissue (abdominal fat))?
A: 2000 ng/mL

Q: And the concentration at 3 h ([3]; adipose tissue (abdominal fat), 50 mg/kg, 3 hr, read-out: Adipose tissue (abdominal fat))?
A: 1590 ng/mL

Q: And the concentration at 4 h ([3]; adipose tissue (abdominal fat), 50 mg/kg, 4 hr, read-out: Adipose tissue (abdominal fat))?
A: 1760 ng/mL

Q: What about the concentration at 4 h ([3]; brain, 30 mg/kg, 4 hr, read-out: Brain) of the same compound?
A: 6 ng/mL

Q: And the concentration at 1 h ([3]; heart, 30 mg/kg, 1 hr, read-out: Heart)?
A: 103 ng/mL

Q: And the concentration at 3 h ([3]; heart, 30 mg/kg, 3 hr, read-out: Heart)?
A: 32 ng/mL

Q: And the concentration at 4 h ([3]; heart, 30 mg/kg, 4 hr, read-out: Heart)?
A: 31 ng/mL

Q: What about the concentration at 1 h ([3]; heart, 50 mg/kg, 1 hr, read-out: Heart) of the same compound?
A: 52 ng/mL

Q: And the concentration at 3 h ([3]; heart, 50 mg/kg, 3 hr, read-out: Heart)?
A: 36 ng/mL

Q: What about the concentration at 4 h ([3]; heart, 50 mg/kg, 4 hr, read-out: Heart) of the same compound?
A: 102 ng/mL

Q: What about the concentration at 1 h ([3]; jejunum, 30 mg/kg, 1 hr, read-out: Jejunum) of the same compound?
A: 124000 ng/mL

Q: What about the concentration at 3 h ([3]; jejunum, 30 mg/kg, 3 hr, read-out: Jejunum) of the same compound?
A: 35 ng/mL

Q: What about the concentration at 4 h ([3]; jejunum, 30 mg/kg, 4 hr, read-out: Jejunum) of the same compound?
A: 27 ng/mL

Q: What about the concentration at 1 h ([3]; jejunum, 50 mg/kg, 1 hr, read-out: Jejunum) of the same compound?
A: 4390 ng/mL

Q: And the concentration at 3 h ([3]; jejunum, 50 mg/kg, 3 hr, read-out: Jejunum)?
A: 165 ng/mL

Q: What about the concentration at 4 h ([3]; jejunum, 50 mg/kg, 4 hr, read-out: Jejunum) of the same compound?
A: 55 ng/mL

Q: And the concentration at 1 h ([3]; liver, 30 mg/kg, 1 hr, read-out: Liver)?
A: 118 ng/mL

Q: What about the concentration at 3 h ([3]; liver, 30 mg/kg, 3 hr, read-out: Liver) of the same compound?
A: 74 ng/mL

Q: What about the concentration at 4 h ([3]; liver, 30 mg/kg, 4 hr, read-out: Liver) of the same compound?
A: 106 ng/mL

Q: And the concentration at 1 h ([3]; liver, 50 mg/kg, 1 hr, read-out: Liver)?
A: 80 ng/mL

Q: What about the concentration at 3 h ([3]; liver, 50 mg/kg, 3 hr, read-out: Liver) of the same compound?
A: 64 ng/mL

Q: And the concentration at 4 h ([3]; liver, 50 mg/kg, 4 hr, read-out: Liver)?
A: 71 ng/mL

Q: What about the concentration at 1 h ([3]; plasma, 30 mg/kg, 1 hr, read-out: Plasma) of the same compound?
A: 627 ng/mL

Q: What about the concentration at 3 h ([3]; plasma, 30 mg/kg, 3 hr, read-out: Plasma) of the same compound?
A: 147 ng/mL

Q: What about the concentration at 4 h ([3]; plasma, 30 mg/kg, 4 hr, read-out: Plasma) of the same compound?
A: 121 ng/mL

Q: What about the concentration at 1 h ([3]; plasma, 50 mg/kg, 1 hr, read-out: Plasma) of the same compound?
A: 501 ng/mL

Q: And the concentration at 3 h ([3]; plasma, 50 mg/kg, 3 hr, read-out: Plasma)?
A: 199 ng/mL

Q: And the concentration at 4 h ([3]; plasma, 50 mg/kg, 4 hr, read-out: Plasma)?
A: 112 ng/mL

Q: What about the concentration at 1 h ([3]; skeletal muscle, 30 mg/kg, 1 hr, read-out: Skeletal muscle) of the same compound?
A: 287 ng/mL

Q: What about the concentration at 4 h ([3]; skeletal muscle, 30 mg/kg, 4 hr, read-out: Skeletal muscle) of the same compound?
A: 56 ng/mL

Q: What about the “toxicity compared to reference compounds MK-8722 and PF-06409577 (G6PD release)” value (HepG2 cells) of the same compound?
A: less toxicity

Q: What about the AMPK signaling activation [4] of the same compound?
A: dose-dependent manner
